Test results taken from patent publication US9914731B2, “Pyrazolo[1,5-a]pyridine derivatives and methods of their use” (Ignyta, Inc., priority 2013, dated 2018).
pIC50: −log10 of the molar value.

Target: recombinant human baculovirus-expressed cMET (Homo sapiens (Human), UniProt P08581)
Assay: c-MET kinase assay (HTRF KinEASE)
Type: biochemical
Conditions: average of two or more determinations; read-out: c-MET IC50

SMILES	pIC50
O=C(Nc1ccc(Oc2cc(N3CCCCC3)cn3nccc23)c(F)c1)c1cccn(-c2ccc(F)cc2)c1=O [Example 57, 1-(4-Fluoro-phenyl)-2-oxo-1,2-dihydro-pyridine-3-carboxylic acid[3-fluoro-4-(6-piperidin-1-yl-pyrazolo[1,5-a]pyridin-4-yloxy)-phenyl]-amide]	> 8.00
Cc1ccc(C(=O)Nc2ccc(Oc3cc(N4CCOCC4)cn4nccc34)c(F)c2)c(=O)n1-c1ccc(F)cc1 [Example 60, 1-(4-Fluoro-phenyl)-6-methyl-2-oxo-1,2-dihydro-pyridine-3-carboxylic acid [3-fluoro-4-(6-morpholin-4-yl-pyrazolo[1,5-a]pyridin-4-yloxy)-phenyl]-amide]	> 8.00
O=C(Nc1ccc(F)cc1)C1(C(=O)Nc2ccc(Oc3cc(N4CCOCC4)cn4nccc34)c(F)c2)CC1 [Example 63, Cyclopropane-1,1-dicarboxylic acid[3-fluoro-4-(6-morpholin-4-yl-pyrazolo[1,5-a]pyridin-4-yloxy)-phenyl]-amide(4-fluoro-phenyl)-amide]	7.00 to 8.00
O=C(Nc1ccc(Oc2cc(N3CCC4(CC3)OCCO4)cn3nccc23)c(F)c1)c1cccn(-c2ccc(F)cc2)c1=O [Example 67, 1-4-(Fluoro-phenyl)-2-oxo-1,2-dihydro-pyridine-3-carboxylic acid{4-[6-(1,4-dioxa-8-aza-spiro[4,5]dec-8-yl)-pyrazolo[1,5-a]pyridin-4-yloxy]-3-fluoro-phenyl}-amide]	7.00 to 8.00
CC(C)n1cc(C(=O)Nc2ccc(Oc3cc(N4CCC(F)(F)CC4)cn4nccc34)c(F)c2)c(=O)n(-c2ccc(F)cc2)c1=O [Example 69, 3-(4-Fluoro-phenyl)-1-isopropyl-2,4-dioxo-1,2,3,4-tetrahydro-pyrimidine-5-carboxylic acid{4-[6-(4,4-difluoro-piperidin-1-yl)-pyrazolo[1,5-a]pyridin-4-yloxy]-3-fluoro-phenyl}-amide]	7.00 to 8.00
CC(C)n1cc(C(=O)Nc2ccc(Oc3cc(N4CCC(F)(F)C4)cn4nccc34)c(F)c2)c(=O)n(-c2ccc(F)cc2)c1=O [Example 71, 3-(4-Fluoro-phenyl)-1-isopropyl-2,4-dioxo-1,2,3,4-tetrahydro-pyrimidine-5-carboxylic acid{4-[6-(3,3-difluoro-pyrrolidin-1-yl)-pyrazolo[1,5-a]pyridin-4-yloxy]-3-fluoro-phenyl}-amide]	7.00 to 8.00
O=C(Nc1ccc(Oc2cc(N3CCS(=O)(=O)CC3)cn3nccc23)c(F)c1)c1cccn(-c2ccc(F)cc2)c1=O [Example 72, 1-(4-Fluoro-phenyl)-2-oxo-1,2-dihydro-pyridine-3-carboxylic acid{4-[6-(1,1-dioxo-thiomorpholin-4-yl)-pyrazolo[1,5-a]pyridin-4-yloxy]-3-fluoro-phenyl}-amide]	7.00 to 8.00
CC(C)n1cc(C(=O)Nc2ccc(Oc3cc(N4CCS(=O)(=O)CC4)cn4nccc34)c(F)c2)c(=O)n(-c2ccc(F)cc2)c1=O [Example 74, 3-(4-Fluoro-phenyl)-1-isopropyl-2,4-dioxo-1,2,3,4-tetrahydro-pyrimidine-5-carboxylic acid{4-[6-(1,1-dioxo-thiomorpholin-4-yl)-pyrazolo[1,5-a]pyridin-4-yloxy]-3-fluoro-phenyl}-amide]	> 8.00
O=C(Nc1ccc(Oc2cc(N3CCCC3)cn3nccc23)c(F)c1)c1cccn(-c2ccc(F)cc2)c1=O [Example 75, 1-(4-Fluoro-phenyl)-2-oxo-1,2-dihydro-pyridine-3-carboxylic acid[3-fluoro-4-(6-pyrrolidin-1-yl-pyrazolo[1,5-a]pyridin-4-yloxy)-phenyl]-amide]	> 8.00
Cn1cc(-c2cc(Oc3ccc(NC(=O)c4cccn(-c5ccc(F)cc5)c4=O)cn3)c3ccnn3c2)cn1 [Example 89, 1-(4-Fluoro-phenyl)-2-oxo-1,2-dihydro-pyridine-3-carboxylic acid{6-[6-(1-methyl-1H-pyrazol-4-yl)-pyrazolo[1,5-a]pyridin-4-yloxy]-pyridin-3-yl}-amide]	> 8.00

Continued, values first:

pIC50	SMILES
7.00 to 8.00	CCOCCn1cc(C(=O)Nc2ccc(Oc3cc(N4CCOCC4)cn4nccc34)c(F)c2)c(=O)n(-c2ccc(F)cc2)c1=O [Example 58, 1-(2-Ethoxy-ethyl)-3-(4-fluoro-phenyl)-2,4-dioxo-1,2,3,4-tetrahydro-pyrimidine-5-carboxylic acid [3-fluoro-4-(6-morpholin-4-yl-pyrazolo[1,5-a]pyridin-4-yloxy)-phenyl]-amide]
> 8.00	CCn1cc(C(=O)Nc2ccc(Oc3cc(N4CCOCC4)cn4nccc34)c(F)c2)c(=O)n(-c2ccc(F)cc2)c1=O [Example 61, 1-Ethyl-3-(4-fluoro-phenyl)-2,4-dioxo-1,2,3,4-tetrahydro-pyrimidine-5-carboxylic acid[3-fluoro-4-(6-morpholin-4-yl-pyrazolo[1,5-a]pyridin-4-yloxy)-phenyl]-amide]
7.00 to 8.00	CCn1cc(C(=O)Nc2ccc(Oc3cc(N4CCC(F)(F)C4)cn4nccc34)c(F)c2)c(=O)n(-c2ccc(F)cc2)c1=O [Example 70, 1-Ethyl-3-(4-fluoro-phenyl)-2,4-dioxo-1,2,3,4-tetrahydro-pyrimidine-5-carboxylic acid{4-[6-(3,3-difluoro-pyrrolidin-1-yl)-pyrazolo[1,5-a]pyridin-4-yloxy]-3-fluoro-phenyl}-amide]
> 8.00	CCn1cc(C(=O)Nc2ccc(Oc3cc(N4CCS(=O)(=O)CC4)cn4nccc34)c(F)c2)c(=O)n(-c2ccc(F)cc2)c1=O [Example 73, 1-Ethyl-3-(4-fluoro-phenyl)-2,4-dioxo-1,2,3,4-tetrahydro-pyrimidine-5-carboxylic acid{4-[6-(1,1-dioxo-thiomorpholin-4-yl)-pyrazolo[1,5-a]pyridin-4-yloxy]-3-fluoro-phenyl}-amide]
> 8.00	O=C(Nc1ccc(Oc2cc(N3CCCC3=O)cn3nccc23)c(F)c1)c1cccn(-c2ccc(F)cc2)c1=O [Example 76, 1-(4-Fluoro-phenyl)-2-oxo-1,2-dihydro-pyridine-3-carboxylic acid{3-fluoro-4-[6-(2-oxo-pyrrolidin-1-yl)-pyrazolo[1,5-a]pyridin-4-yloxy]-phenyl}-amide]
> 8.00	CC(C)n1cc(C(=O)Nc2ccc(Oc3cc(N4CCCC4=O)cn4nccc34)c(F)c2)c(=O)n(-c2ccc(F)cc2)c1=O [Example 78, 3-(4-Fluoro-phenyl)-1-isopropyl-2,4-dioxo-1,2,3,4-tetrahydro-pyrimidine-5-carboxylic acid {3-fluoro-4-[6-(2-oxo-pyrrolidin-1-yl)-pyrazolo[1,5-a]pyridin-4-yloxy]-phenyl}-amide]
> 8.00	O=C(Nc1ccc(Oc2cc(Nc3ccccc3)cn3nccc23)c(F)c1)c1cccn(-c2ccc(F)cc2)c1=O [Example 80, 1-(4-Fluoro-phenyl)-2-oxo-1,2-dihydro-pyridine-3-carboxylic acid[3-fluoro-4-(6-phenylamino-pyrazolo[1,5-a]pyridin-4-yloxy)-phenyl]-amide]
> 8.00	O=C(Nc1ccc(Oc2cc(Nc3ccccn3)cn3nccc23)c(F)c1)c1cccn(-c2ccc(F)cc2)c1=O [Example 81, 1-(4-Fluoro-phenyl)-2-oxo-1,2-dihydro-pyridine-3-carboxylic acid{3-fluoro-4-[6-(pyridin-2-ylamino)-pyrazolo[1,5-a]pyridin-4-yloxy]-phenyl}-amide]
> 8.00	Cc1c(Nc2cc(Oc3ccc(NC(=O)c4cccn(-c5ccc(F)cc5)c4=O)cc3F)c3ccnn3c2)cnn1C [Example 82, 1-(4-Fluoro-phenyl)-2-oxo-1,2-dihydro-pyridine-3-carboxylic acid{4-[6-(1,5-dimethyl-1H-pyrazol-4-ylamino)-pyrazolo[1,5-a]pyridin-4-yloxy]-3-fluoro-phenyl}-amide]
> 8.00	Cc1ccc(C(=O)Nc2ccc(Oc3cc(Nc4ccc(F)cn4)cn4nccc34)c(F)c2)c(=O)n1-c1ccc(F)cc1 [Example 83, 1-(4-Fluoro-phenyl)-6-methyl-2-oxo-1,2-dihydro-pyridine-3-carboxylic acid {3-fluoro-4-[6-(5-fluoro-pyridin-2-ylamino)-pyrazolo[1,5-a]pyridin-4-yloxy]-phenyl}-amide]
7.00 to 8.00	CCn1cc(C(=O)Nc2ccc(Oc3cc(Nc4ncccn4)cn4nccc34)c(F)c2)c(=O)n(-c2ccc(F)cc2)c1=O [Example 84, 1-Ethyl-3-(4-fluoro-phenyl)-2,4-dioxo-1,2,3,4-tetrahydro-pyrimidine-5-carboxylic acid{3-fluoro-4-[6-(pyrimidin-2-ylamino)-pyrazolo[1,5-a]pyridin-4-yloxy]-phenyl}-amide]
> 8.00	CC(C)n1cc(C(=O)Nc2ccc(Oc3cc(Nc4ncccn4)cn4nccc34)c(F)c2)c(=O)n(-c2ccc(F)cc2)c1=O [Example 85, 3-(4-Fluoro-phenyl)-1-isopropyl-2,4-dioxo-1,2,3,4-tetrahydro-pyrimidine-5-carboxylic acid{3-fluoro-4-[6-(pyrimidin-2-ylamino)-pyrazolo[1,5-a]pyridin-4-yloxy]-phenyl}-amide]
7.00 to 8.00	CCn1cc(C(=O)Nc2ccc(Oc3cc(Nc4ccccn4)cn4nccc34)c(F)c2)c(=O)n(-c2ccc(F)cc2)c1=O [Example 86, 1-Ethyl-3-(4-fluoro-phenyl)-2,4-dioxo-1,2,3,4-tetrahydro-pyrimidine-5-carboxylic acid{3-fluoro-4-[6-(pyridin-2-ylamino)-pyrazolo[1,5-a]pyridin-4-yloxy]-phenyl}-amide]
7.00 to 8.00	CC(C)n1cc(C(=O)Nc2ccc(Oc3cc(Nc4ccccn4)cn4nccc34)c(F)c2)c(=O)n(-c2ccc(F)cc2)c1=O [Example 87, 3-(4-Fluoro-phenyl)-1-isopropyl-2,4-dioxo-1,2,3,4-tetrahydro-pyrimidine-5-carboxylic acid{3-fluoro-4-[6-(pyridin-2-ylamino)-pyrazolo[1,5-a]pyridin-4-yloxy]-phenyl}-amide]

Same assay, conditions: read-out: c-MET IC50

SMILES	pIC50
CCOc1ccn(-c2ccc(F)cc2)c(=O)c1C(=O)Nc1ccc(Oc2cc(N3CCOCC3)cn3nccc23)c(F)c1 [Example 66, 4-Ethoxy-1-(4-fluoro-phenyl)-2-oxo-1,2-dihydro-pyridine-3-carboxylic acid [3-fluoro-4-(6-morpholin-4-yl-pyrazolo[1,5-a]pyridin-4-yloxy)-phenyl]-amide]	> 8.00
